Legend:
OCTN2/slc22a5 = biological target: T1, OCTN2/slc22a5 (Mus musculus, UniProt Q9Z0E8); test: [3H]L-carnitine uptake in NSC-34 cells with mOCTN2 siRNA knockdown; type: cell-based
T1 sequence (Q9Z0E8 1-557): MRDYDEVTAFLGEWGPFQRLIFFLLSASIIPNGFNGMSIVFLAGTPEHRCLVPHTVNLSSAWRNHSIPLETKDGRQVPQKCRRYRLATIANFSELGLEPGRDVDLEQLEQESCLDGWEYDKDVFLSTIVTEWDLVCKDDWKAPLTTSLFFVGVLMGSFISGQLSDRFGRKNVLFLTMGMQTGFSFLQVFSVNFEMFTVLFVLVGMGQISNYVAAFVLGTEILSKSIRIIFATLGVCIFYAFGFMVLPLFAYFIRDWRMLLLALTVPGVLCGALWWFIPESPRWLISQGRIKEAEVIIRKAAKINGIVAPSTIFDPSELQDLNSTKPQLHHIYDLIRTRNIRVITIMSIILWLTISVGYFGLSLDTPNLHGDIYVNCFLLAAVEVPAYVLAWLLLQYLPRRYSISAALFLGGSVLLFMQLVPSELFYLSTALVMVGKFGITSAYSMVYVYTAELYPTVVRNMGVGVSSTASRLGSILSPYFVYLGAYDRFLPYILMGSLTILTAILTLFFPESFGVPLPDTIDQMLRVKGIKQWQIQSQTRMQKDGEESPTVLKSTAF

OCTN1/slc22a4 = biological target: T2, OCTN1/slc22a4 (Mus musculus, UniProt Q9Z306); test: [3H]L-carnitine uptake in NSC-34 cells with mOCTN1 siRNA knockdown; type: cell-based
T2 sequence (Q9Z306 1-553): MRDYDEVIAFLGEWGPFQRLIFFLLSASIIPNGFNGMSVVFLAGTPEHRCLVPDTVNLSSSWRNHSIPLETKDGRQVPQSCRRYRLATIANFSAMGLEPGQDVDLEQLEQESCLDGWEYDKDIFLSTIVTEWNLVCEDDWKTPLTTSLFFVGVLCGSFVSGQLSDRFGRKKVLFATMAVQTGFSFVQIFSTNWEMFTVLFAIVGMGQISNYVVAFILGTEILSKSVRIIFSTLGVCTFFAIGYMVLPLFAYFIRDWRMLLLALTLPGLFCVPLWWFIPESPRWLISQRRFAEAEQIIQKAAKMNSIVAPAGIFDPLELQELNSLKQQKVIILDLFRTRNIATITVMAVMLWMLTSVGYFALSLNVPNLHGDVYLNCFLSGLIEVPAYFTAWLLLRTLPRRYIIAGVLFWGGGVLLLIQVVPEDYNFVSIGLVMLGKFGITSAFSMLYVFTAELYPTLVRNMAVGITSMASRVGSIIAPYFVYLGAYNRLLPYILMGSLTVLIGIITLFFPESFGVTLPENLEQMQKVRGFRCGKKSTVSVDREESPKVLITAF

C[N+](C)(C)C[C@H](O)CC(=O)[O-] [LC, L-carnitine]
[3H]L-carnitine uptake in NSC-34 cells with mOCTN2 siRNA knockdown (OCTN2/slc22a5): mOCTN1 and mOCTN2 siRNA-transfected NSC-34 cell lines demonstrated a significant decrease in the slc22a4 and slc22a5 gene expression level | [3H]L-carnitine uptake in NSC-34 cells with mOCTN1 siRNA knockdown (OCTN1/slc22a4): OCTN1/slc22a4 and OCTN2/slc22a5 siRNA transfection study revealed both transporters are involved in LC transport in NSC-34 cell lines

Reference: publication PMC8070968, “The Alteration of L-Carnitine Transport and Pretreatment Effect under Glutamate Cytotoxicity on Motor Neuron-Like NSC-34 Lines” (Pharmaceutics, 2021)
